Experimental data published in US20230285568A1, “ENGINEERING DIVERSE ANTIGEN-PRESENTING CELLS TO CONTROL ANTIGEN-SPECIFIC RESPONSES” (University of Maryland, Baltimore, priority 2020, published 2023).

System: OVA-specific CD4+ T (OT-II) cells
Assay: BMDC/B cell co-culture with OT-II cells, CFSE dilution and CD25 expression
Type: cell-based, mouse
Conditions: BMDCs and B cells, 3-day co-culture
Method: T cell proliferation studies assays were carried out as described. The assay was carried out in T cell media. BMDCs (2×10^4/well) or B cells (2×10^4/well) were seeded into 96-well round-bottom cell culture plates and incubated with LAg-nano or PAg-nano at various particle concentrations and Ag loadings for 3 hours. Following incubation, all wells were washed to remove excess particles that had not been internalized by cells. Cells were co-cultured with 2×10^4/well of each OTI (CD8) and OTII (CD4) T cells). Groups receiving antigen in lieu of LAg-nano or PAg-nano received soluble OVA323-339 or SIINFEKL (SEQ ID NO:1; 100 ng/mL) at this time. After 3 days of co-culture, the T cells were collected, stained for viability, CD4, and CD8 and analyzed using flow cytometry. The extent of T cell proliferation was analyzed by CFSE dilution using flow cytometry. Ag processing kinetics in B cells was determined by loading with long GP100, KVPRNQDWL (SEQ ID NO:4; short GP100), or lipid-long GP100, […] (lipid-GP100; SEQ ID NO:3). […]
BMDCs and B cells loaded with unmodified ovalbumin (OVA) MHC II-restricted antigen (OVA323-339) or lipo-OVA323-339 were co-cultured with OVA-specific CD4^+ T (OT-II) cells for 3 days. CD25+ expression was detected and the proliferation and division indices were calculated. […] FIGS. 11E through 11H show quantitation of the proliferation and division indices of OT-II T cells. […]

With “Lipo-OVA323-339: DSPE-PEG2000 lipid conjugated to OVA323-339 (ISQAVHAAHAEINEAGR; SEQ ID NO:2)” the “APC internalization and MHC II-restricted presentation to OTII CD4+ T cells” value was “enables APC internalization and promotes MHC II-restricted presentation”.
